From ChEMBL document CHEMBL1201862, “PubChem BioAssay data set” (2004)
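Cells were grown in 96-well plates and exposed to each compound for 48 hours at five concentrations; endpoints were interpolated linearly between bracketing concentrations, or set to the highest concentration if not reached. GI50 is the concentration that inhibits growth by half.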 Activity calls are given as the source filed them. No stated cut-off is given here; in the data, active = GI50 up to about 1.1 µM and inactive = higher.

Experiments:
Experiment in all cases: DTP human tumour cell line panel, 48 h
MDA-N = system: MDA-N
SK-MEL-28 = system: SK-MEL-28
786-0 = system: 786-0
NCI-H522 = system: NCI-H522
DU-145 = system: DU-145
SK-MEL-5 = system: SK-MEL-5
A498 = system: A498
OVCAR-3 = system: OVCAR-3
SNB-19 = system: SNB-19
SF-295 = system: SF-295
K562 = system: K562
U-251 = system: U-251
T47D = system: T47D
TK-10 = system: TK-10
SF-268 = system: SF-268
MCF7 = system: MCF7
HL-60 = system: HL-60
HT-29 = system: HT-29
A549 = system: A549
UACC-62 = system: UACC-62
LOX IMVI = system: LOX IMVI
RPMI-8226 = system: RPMI-8226
RXF 393 = system: RXF 393
MOLT-4 = system: MOLT-4
COLO 205 = system: COLO 205
OVCAR-8 = system: OVCAR-8
MDA-MB-231 = system: MDA-MB-231
OVCAR-4 = system: OVCAR-4
ACHN = system: ACHN
NCI-H23 = system: NCI-H23
NCI-H460 = system: NCI-H460
HCC 2998 = system: HCC 2998
HCT-116 = system: HCT-116
CAKI-1 = system: CAKI-1
SN12C = system: SN12C
Malme-3M = system: Malme-3M
CCRF-CEM = system: CCRF-CEM
IGROV-1 = system: IGROV-1
BT-549 = system: BT-549
UACC-257 = system: UACC-257
PC-3 = system: PC-3
Hs-578T = system: Hs-578T
OVCAR-5 = system: OVCAR-5
MDA-MB-435 = system: MDA-MB-435
NCI-H226 = system: NCI-H226
SNB-75 = system: SNB-75
EKVX = system: EKVX
HCT-15 = system: HCT-15
SK-MEL-2 = system: SK-MEL-2
UO-31 = system: UO-31
HOP-62 = system: HOP-62
HOP-92 = system: HOP-92
NCI/ADR-RES = system: NCI/ADR-RES
M14 = system: M14
KM12 = system: KM12
SW-620 = system: SW-620
SK-OV-3 = system: SK-OV-3
SF-539 = system: SF-539

Question: Which results are given for CCCCn1cnc2c(c(CC#N)nn2-c2ccccc2)c1=N?
Answer: GI50 (MDA-N): 38.1 µM (inactive); GI50 (SK-MEL-28): 44.1 µM (inactive); GI50 (786-0): 57.1 µM (inactive); GI50 (NCI-H522): 43.1 µM (inactive); GI50 (DU-145): 76 µM (inactive); GI50 (SK-MEL-5): 20.9 µM (inactive); GI50 (A498): 24.5 µM (inactive); GI50 (OVCAR-3): 63.7 µM (inactive); GI50 (SNB-19): > 100 µM (inactive); GI50 (SF-295): 30.4 µM (inactive); GI50 (K562): 34 µM (inactive); GI50 (U-251): 37.9 µM (inactive); GI50 (T47D): 35.7 µM (inactive); GI50 (TK-10): 64.7 µM (inactive); GI50 (SF-268): 71.1 µM (inactive); GI50 (MCF7): 43.2 µM (inactive); GI50 (HL-60): 34 µM (inactive); GI50 (HT-29): 33.4 µM (inactive); GI50 (A549): 83.8 µM (inactive); GI50 (UACC-62): 20.2 µM (inactive); GI50 (LOX IMVI): 39.3 µM (inactive); GI50 (RPMI-8226): 27.4 µM (inactive); GI50 (RXF 393): 70.1 µM (inactive); GI50 (MOLT-4): 33.1 µM (inactive); GI50 (COLO 205): 30.7 µM (inactive); GI50 (OVCAR-8): 41.4 µM (inactive); GI50 (MDA-MB-231): 43.1 µM (inactive); GI50 (OVCAR-4): 29.8 µM (inactive); GI50 (ACHN): 66.1 µM (inactive); GI50 (NCI-H23): 51.9 µM (inactive); GI50 (NCI-H460): 39.9 µM (inactive); GI50 (HCC 2998): 37.1 µM (inactive); GI50 (HCT-116): 48.6 µM (inactive); GI50 (CAKI-1): > 100 µM (inactive); GI50 (SN12C): 70.8 µM (inactive); GI50 (Malme-3M): 63.5 µM (inactive); GI50 (CCRF-CEM): 47.6 µM (inactive); GI50 (IGROV-1): 68.9 µM (inactive); GI50 (BT-549): 37.8 µM (inactive); GI50 (UACC-257): 35.4 µM (inactive); GI50 (PC-3): 36.8 µM (inactive); GI50 (Hs-578T): 39.9 µM (inactive); GI50 (OVCAR-5): > 100 µM (inactive); GI50 (MDA-MB-435): 32.3 µM (inactive); GI50 (NCI-H226): 79.1 µM (inactive); GI50 (SNB-75): 45.6 µM (inactive); GI50 (EKVX): 48.8 µM (inactive); GI50 (HCT-15): 36.8 µM; GI50 (SK-MEL-2): 23.7 µM (inactive); GI50 (UO-31): 60.4 µM (inactive); GI50 (HOP-62): > 100 µM (inactive); GI50 (HOP-92): 52.2 µM (inactive); GI50 (NCI/ADR-RES): 41.2 µM (inactive); GI50 (M14): 53.2 µM (inactive); GI50 (KM12): 43 µM (inactive); GI50 (SW-620): 41.9 µM (inactive); GI50 (SK-OV-3): > 100 µM (inactive)

Question: What does the source list for CC(C)=c1sc(=C(C)C)c2c1=NC(C)(C)N=2?
Answer: GI50 (MDA-N): 65.6 µM (inactive); GI50 (SK-MEL-28): 73.6 µM (inactive); GI50 (786-0): > 100 µM (inactive); GI50 (NCI-H522): 32.9 µM (inactive); GI50 (DU-145): 58.3 µM (inactive); GI50 (SK-MEL-5): 79.6 µM (inactive); GI50 (A498): 87.5 µM (inactive); GI50 (OVCAR-3): 72.6 µM (inactive); GI50 (SNB-19): > 100 µM (inactive); GI50 (SF-295): 75.5 µM (inactive); GI50 (U-251): 46 µM (inactive); GI50 (T47D): 52.8 µM (inactive); GI50 (TK-10): > 100 µM (inactive); GI50 (SF-268): 64.9 µM (inactive); GI50 (MCF7): 48.3 µM (inactive); GI50 (HL-60): 57.4 µM (inactive); GI50 (HT-29): 74.6 µM (inactive); GI50 (A549): 51.5 µM (inactive); GI50 (UACC-62): 37.4 µM (inactive); GI50 (LOX IMVI): 27 µM (inactive); GI50 (RPMI-8226): 37.2 µM (inactive); GI50 (RXF 393): > 100 µM (inactive); GI50 (MOLT-4): 42.4 µM (inactive); GI50 (COLO 205): 87.3 µM (inactive); GI50 (OVCAR-8): 94 µM (inactive); GI50 (MDA-MB-231): > 100 µM (inactive); GI50 (OVCAR-4): > 100 µM (inactive); GI50 (ACHN): 37.5 µM (inactive); GI50 (NCI-H23): 53.7 µM (inactive); GI50 (NCI-H460): 43.7 µM (inactive); GI50 (SF-539): > 100 µM (inactive); GI50 (HCC 2998): 27.5 µM (inactive); GI50 (HCT-116): 50.5 µM (inactive); GI50 (CAKI-1): 77.1 µM (inactive); GI50 (SN12C): 58.5 µM (inactive); GI50 (Malme-3M): > 100 µM (inactive); GI50 (CCRF-CEM): 44.3 µM (inactive); GI50 (IGROV-1): 42.1 µM (inactive); GI50 (BT-549): 67.3 µM (inactive); GI50 (UACC-257): 30.9 µM (inactive); GI50 (PC-3): 45.9 µM (inactive); GI50 (Hs-578T): 53.6 µM (inactive); GI50 (OVCAR-5): 36.5 µM (inactive); GI50 (MDA-MB-435): > 100 µM (inactive); GI50 (EKVX): 57.9 µM (inactive); GI50 (HCT-15): 47.8 µM; GI50 (SK-MEL-2): 26.7 µM (inactive); GI50 (HOP-62): > 100 µM (inactive); GI50 (NCI/ADR-RES): > 100 µM (inactive); GI50 (M14): 77.4 µM (inactive); GI50 (KM12): 78.9 µM (inactive); GI50 (SW-620): 72.6 µM (inactive); GI50 (SK-OV-3): > 100 µM (inactive)

Question: Which GI50 (MDA-N) does the source give for COc1cc(NS(C)(=O)=O)ccc1N1Cc2c[nH]c3ccc4nccc1c4c23 here?
Answer: 28.7 µM (inactive)

Question: What about the GI50 (SK-MEL-28) of the same compound?
Answer: 36 µM (inactive)

Question: And the GI50 (786-0)?
Answer: 30.8 µM (inactive)

Question: And the GI50 (NCI-H522)?
Answer: 15.5 µM (inactive)

Question: What about the GI50 (DU-145) of the same compound?
Answer: 42.5 µM (inactive)

Question: And the GI50 (SK-MEL-5)?
Answer: 23.4 µM (inactive)

Question: And the GI50 (A498)?
Answer: 38.5 µM (inactive)

Question: What about the GI50 (OVCAR-3) of the same compound?
Answer: 33.7 µM (inactive)

Question: And the GI50 (SNB-19)?
Answer: 34.7 µM (inactive)

Question: What about the GI50 (SF-295) of the same compound?
Answer: 41.5 µM (inactive)

Question: What about the GI50 (K562) of the same compound?
Answer: 22.5 µM (inactive)

Question: What about the GI50 (U-251) of the same compound?
Answer: 36.5 µM (inactive)

Question: What about the GI50 (T47D) of the same compound?
Answer: 25.5 µM (inactive)

Question: What about the GI50 (TK-10) of the same compound?
Answer: 39.8 µM (inactive)

Question: And the GI50 (SF-268)?
Answer: 19.1 µM (inactive)

Question: What about the GI50 (MCF7) of the same compound?
Answer: 36.6 µM (inactive)

Question: What about the GI50 (HL-60) of the same compound?
Answer: 23.6 µM (inactive)

Question: What about the GI50 (HT-29) of the same compound?
Answer: 30.8 µM (inactive)

Question: What about the GI50 (A549) of the same compound?
Answer: > 100 µM (inactive)

Question: What about the GI50 (UACC-62) of the same compound?
Answer: 67.8 µM (inactive)

Question: And the GI50 (LOX IMVI)?
Answer: 18.2 µM (inactive)

Question: And the GI50 (RPMI-8226)?
Answer: 17.5 µM (inactive)

Question: What about the GI50 (MOLT-4) of the same compound?
Answer: 22.3 µM (inactive)

Question: And the GI50 (COLO 205)?
Answer: 26.7 µM (inactive)

Question: What about the GI50 (OVCAR-8) of the same compound?
Answer: 35.1 µM (inactive)

Question: What about the GI50 (MDA-MB-231) of the same compound?
Answer: 24.9 µM (inactive)

Question: And the GI50 (OVCAR-4)?
Answer: 61.2 µM (inactive)

Question: What about the GI50 (ACHN) of the same compound?
Answer: > 100 µM (inactive)

Question: And the GI50 (NCI-H23)?
Answer: 39.1 µM (inactive)

Question: And the GI50 (NCI-H460)?
Answer: 18.5 µM (inactive)

Question: And the GI50 (HCT-116)?
Answer: 26.6 µM (inactive)

Question: And the GI50 (CAKI-1)?
Answer: > 100 µM (inactive)

Question: What about the GI50 (SN12C) of the same compound?
Answer: 20.2 µM (inactive)

Question: And the GI50 (CCRF-CEM)?
Answer: 25.5 µM (inactive)

Question: And the GI50 (IGROV-1)?
Answer: 36.3 µM (inactive)

Question: And the GI50 (BT-549)?
Answer: 42.9 µM (inactive)

Question: And the GI50 (UACC-257)?
Answer: 37.2 µM (inactive)

Question: And the GI50 (PC-3)?
Answer: 29.6 µM (inactive)

Question: And the GI50 (Hs-578T)?
Answer: 31.1 µM (inactive)

Question: And the GI50 (OVCAR-5)?
Answer: 30 µM (inactive)

Question: And the GI50 (MDA-MB-435)?
Answer: 34.4 µM (inactive)

Question: What about the GI50 (NCI-H226) of the same compound?
Answer: 29 µM (inactive)

Question: And the GI50 (EKVX)?
Answer: > 100 µM (inactive)

Question: And the GI50 (HCT-15)?
Answer: > 100 µM

Question: What about the GI50 (SK-MEL-2) of the same compound?
Answer: 21.6 µM (inactive)

Question: And the GI50 (UO-31)?
Answer: > 100 µM (inactive)

Question: What about the GI50 (HOP-62) of the same compound?
Answer: 54.2 µM (inactive)

Question: What about the GI50 (HOP-92) of the same compound?
Answer: 26.1 µM (inactive)

Question: And the GI50 (NCI/ADR-RES)?
Answer: > 100 µM (inactive)

Question: What about the GI50 (M14) of the same compound?
Answer: 42.4 µM (inactive)

Question: And the GI50 (KM12)?
Answer: 34.4 µM (inactive)

Question: What about the GI50 (SW-620) of the same compound?
Answer: 32.1 µM (inactive)
